In PubChem BioAssay (NCI):
Several values for one entry are separate records, joined by “and”; a condition that tells them apart may be missing. Equal values may be shown once.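 Where inhibition never reached the appropriate level, the endpoint shown equals the highest concentration tested. Otherwise, values were interpolated linearly from a five-concentration, 48-hour dose response in 96-well plates. At the GI50, growth is halved. Definition used: TGI = concentration required for complete inhibition of growth.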

Assays:
Test in all cases: NCI anticancer screen, dose series, 48 h
[1] = test system: 786-0 renal
[2] = test system: HCT-15 colon
[3] = test system: HS 578T breast
[4] = test system: HT29 colon
[5] = test system: IGROV1 ovarian
[6] = test system: MOLT-4 leukemia
[7] = test system: NCI-H226 lung
[8] = test system: NCI-H460 lung
[9] = test system: OVCAR-3 ovarian
[10] = test system: SK-OV-3 ovarian
[11] = test system: UACC-62 melanoma

Compound	TGI [1]	TGI [2]	TGI [3] [µM]	TGI [4]	TGI [5]	TGI [6]	TGI [7] [µM]	TGI [8]	TGI [9]	TGI [10]	TGI [11]	GI50 [2] [µM]	GI50 [4] [µM]	GI50 [5] [µM]	GI50 [6] [µM]	GI50 [10] [µM]	GI50 [11] [µM]
CC1OC2OC3C(OCC(O)C3O)OC(=O)[C@]34CCC(C)(C)CC3C3=CCC5[C@@]6(C)C[C@H](O)[C@H](OC7OC(CO)C(O)C(O)C7OC7OC(COC(=O)CC(C)(O)CC(=O)OC1C(OC1OC(CO)C(O)C(O)C1O)C2O)C(O)C(O)C7O)[C@@](C)(CO)C6CC[C@@]5(C)[C@]3(C)CC4 (stereo partly drawn)	11.9 µM	15.7 µM	18.6	3.35 µM	11.8 µM	12.7 µM	22.7	19.8 µM	15.2 µM	22.4 µM	3.38 µM	–	–	–	–	–	–
Brc1ccc2[nH]cc(-c3csc(-c4c[nH]c5ccc(Br)cc45)n3)c2c1	3.49 µM	4.5 µM	> 20.8	3.16 µM	4.6 µM	3.45 µM	5.1	3.43 µM	6.95 µM	8.09 µM	4.09 µM	–	–	–	–	–	–
COc1cc(/C=C2/C(=O)N(C(=O)c3ccccc3O)N=C2C)ccc1O	> 100 µM	> 100 µM	> 100	> 100 µM	2.06 µM	> 100 µM	31.2	> 100 µM	0.989 µM	> 86.5 µM	0.364 µM	–	–	–	–	–	–
Cn1c2ccccc2c2c3c(=O)[nH][nH]c(=O)c3c3c4ccccc4n(C)c3c21	> 100 µM	> 100 µM	> 100	> 100 µM	> 100 µM	> 100 µM	> 100	> 100 µM	> 100 µM	> 100 µM	> 100 µM	–	–	–	–	–	–
COc1ccc(C(=C2C(=O)OC(=O)C2=C(C)C)c2ccc(OC)cc2)cc1	> 100 µM	> 100 µM	> 100	> 100 µM	> 100 µM	> 100 µM	> 100	> 100 µM	47.5 µM	> 100 µM	> 100 µM	–	–	–	–	–	–
CC1=CC(O)CC(C)(C)C1/C=C/C(C)=C/C=C/C(C)=C/C=C/C=C(C)/C=C/C=C(C)/C=C/C1=C(C)CC(O)CC1(C)C (stereo not drawn)	36.7 µM	34.4 µM	> 100	30.3 µM	66.3 µM	> 100 µM	41.4	> 100 µM	32.8 µM	> 100 µM	29.8 µM	–	–	–	–	–	–
O=C1c2c(Br)sc(Br)c2[C@H]2OC(=S)N[C@@H]12	27 µM	3.76 µM	> 52.7	4.05 µM	23.9 µM	5 µM	33.5	34.2 µM	7.26 µM	29.9 µM	24.1 µM	–	–	–	–	–	–
COC(=O)Cc1c2n(c3ccccc13)C(=O)N1c3ccccc3C(CC(=O)OC)C21 (stereo not drawn)	> 100 µM	> 100 µM	> 100	> 100 µM	71.6 µM	> 100 µM	> 100	33.6 µM	> 100 µM	> 100 µM	> 100 µM	–	–	–	–	–	–
CCCCCc1cc(CCCC)sc1-c1ccco1	> 100 µM	> 100 µM	> 100	> 100 µM	> 100 µM	> 100 µM	> 100	> 100 µM	> 100 µM	> 100 µM	> 100 µM	–	–	–	–	–	–
COc1ccc2c(c1)CCC(CN1CCN(CCOC(c3ccccc3)c3ccccc3)CC1)C2O (stereo not drawn)	32.6 µM	23 µM	41.3	18.2 µM	30.1 µM	35.7 µM	34.1	35.8 µM	31.8 µM	35.8 µM	26.7 µM	–	–	–	–	–	–
O=C1CCCC2=C1CC1=C(CCCC1=O)N2c1ccc(-c2ccccc2)cc1	> 100 µM	> 100 µM	> 100	> 100 µM	> 100 µM	> 100 µM	> 100	> 100 µM	> 100 µM	> 100 µM	> 100 µM	–	–	–	–	–	–
Cc1cccc2c(N)c3cccc(C(=O)NCC[N+](C)(C)[O-])c3nc12	> 100 µM	> 100 µM	38.9	60.3 µM	> 100 µM	> 100 µM	27.8	10.2 µM	> 100 µM	64.6 µM	26.8 µM	–	–	–	–	–	–
CC(C)(C)[Si](C)(C)OC1CCOC1(O)c1ccccn1 (stereo not drawn)	> 100 µM	> 100 µM	> 100	> 100 µM	> 100 µM	> 100 µM	> 100	> 100 µM	> 100 µM	> 100 µM	> 100 µM	–	–	–	–	–	–
C[N+]1(CCCCN2c3ccccc3Sc3cc(N=[N+]=[N-])ccc32)CCN(C(=O)CCNC(=O)Cc2ccc(C(=O)c3ccccc3)cc2)CC1	> 67.5 µM	55.9 µM	> 83.1	52.6 µM	> 77.6 µM	> 76.8 µM	> 85.7	> 74.2 µM	89.2 µM	62 µM	> 69.2 µM	–	–	–	–	–	–
C/C(=C\CO)CC[C@@H]1[C@@]2(C)CCCC(C)(C)[C@@H]2CC[C@@]1(C)O	39.8 µM	33.7 µM	56.4	51.2 µM	35.5 µM	69.2 µM	33.4	31.3 µM	27.6 µM	57.1 µM	27.1 µM	–	–	–	–	–	–
OC(CCN1CCN(CCOC(c2ccc(F)cc2)c2ccc(F)cc2)CC1)c1ccc(Br)cc1 (stereo not drawn)	7.07 µM	8.25 µM	23.4	12.7 µM	16.1 µM	7.73 µM	21.9	7.37 µM	9.66 µM	19.8 µM	12.7 µM	–	–	–	–	–	–
Cc1nc2ccccc2n1Cc1ccc(NC(=S)Nc2ccccc2)cc1	> 100 µM	> 100 µM	> 100	> 100 µM	> 100 µM	> 100 µM	> 100	> 100 µM	> 100 µM	> 100 µM	> 100 µM	–	–	–	–	–	–
CN(C)CN1C(=O)/C(=N\n2c(-c3ccncc3)n[nH]c2=S)c2ccccc21	41.6 µM	> 100 µM	> 100	61.5 µM	> 100 µM	45.4 µM	> 100	> 100 µM	> 100 µM	> 100 µM	> 100 µM	–	–	–	–	–	–
COC(=O)[C@@H]1[C@H]2CC[C@]3(C)[C@@H](OC(C)=O)CC[C@H]3[C@@H]2CC[C@H]1C1(C)SCCS1	62.5 µM	> 100 µM	74.4	30 µM	> 100 µM	59.3 µM	42.3	97.8 µM	88.5 µM	> 100 µM	> 100 µM	–	–	–	–	–	–
O=C(CCl)Nc1ccc(C(=O)N/N=C/c2ccc(Cl)cc2)cc1	3.09 µM and 3.12 µM	3.74 µM and 9.73 µM	6.7	3.18 µM and 4.61 µM	3.86 µM and 2.34 µM	6.28 µM and 5.35 µM	35.3	3.84 µM and 4.23 µM	3.42 µM and 3.6 µM	8.02 µM and 24.7 µM	3.2 µM and 8.78 µM	1.48	2.25	1.85	2.44	12.3	1.71
Cc1ccc2nc(Nc3ccccc3C)c(Nc3ccccc3C)nc2c1	> 100 µM	58.7 µM	> 100	> 81.1 µM	> 100 µM	> 100 µM	> 89.7	45 µM	52.3 µM	> 100 µM	> 90.7 µM	–	–	–	–	–	–
CC(C)(C)C#CI1OC(=O)c2ccccc21	11.5 µM	11.6 µM	> 92.3	22.8 µM	12 µM	10 µM	15.2	11.9 µM	8.84 µM	25.1 µM	13.8 µM	–	–	–	–	–	–
C[C@@H](CCO)OC1OC(COC(=O)C(C)(C)C)C(OC(=O)C(C)(C)C)C(OC(=O)C(C)(C)C)C1OC(=O)C(C)(C)C (stereo partly drawn)	> 100 µM	> 100 µM	> 100	35.7 µM	> 100 µM	> 100 µM	> 100	36.6 µM	> 100 µM	> 100 µM	> 100 µM	–	–	–	–	–	–
COc1ccc2c(c1)-c1nc(=S)n(CCN(C)C)c3ccc([N+](=O)[O-])c(c13)N2	1.8 µM	4.76 µM	7.69	2.25 µM	2.55 µM	0.741 µM	24.1	1.71 µM	19.3 µM	18 µM	23.5 µM	–	–	–	–	–	–
Brc1ccc(/C(N=N/C(=N\Sc2ccccc2)c2ccc(Br)cc2)=N/Sc2ccccc2)cc1	> 100 µM	> 100 µM	> 100	> 100 µM	> 100 µM	> 100 µM	> 100	> 100 µM	> 100 µM	> 100 µM	> 100 µM	–	–	–	–	–	–
O=c1n(CCCN2CCOCC2)nc2n1-c1ccc3ccccc3c1SC2	38.3 µM	67.2 µM	> 100	41.2 µM	> 100 µM	> 100 µM	> 100	81.1 µM	> 100 µM	> 100 µM	47.2 µM	–	–	–	–	–	–
CC(=O)N=S(NC(=O)c1ccc(C)cc1)C(Cl)(Cl)Cl (stereo not drawn)	33.1 µM	> 100 µM	> 100	60.6 µM	93.4 µM	83.8 µM	> 100	> 100 µM	52 µM	> 100 µM	> 100 µM	–	–	–	–	–	–
